In US20210348119A1, “COMPOSITIONS AND METHODS FOR CELL CULTURE” (The United States of America as Represented By The …, priority 2018, published 2021):
Where “and” joins values, the source holds several entries; their conditions need not be identical. Equal values may be shown once. Read-outs that look alike come from different tables or passages of the source.

What was measured:
[1] = system: H9 cells; test: qHTS for survival of dissociated H9 cells (CellTiter-Glo, 24 hours after seeding); type: cell-based, human
Description: FIG. 2 schematically illustrates qHTS procedure.
All the screed compounds were received pre-plated at the pre-determined concentrations. […] Curve classification is explained in Huang et al. “Chemical genomics profiling of environmental chemical modulation of human nuclear receptors” Environ. Health. Perspect.

[2] = system: H9 cells; test: Combinatorial matrix screening for synergistic effects on cell survival; type: cell-based, human; details: 10×10 matrix, normalized to 10 μM Y-27632
Protocol: Combinatorial matrix screening was performed to identify the compounds with synergistic effects on cell survival. Focusing on the compounds with different mechanisms of action, 29 compounds were selected for combinational matrix screening, resulting in 812 sets of 10×10 checkerboard matrix experiments (data not shown), four of which are illustrated in FIG. 9. The concentrations of the compounds for combinational matrix screening were optimized based on the slope and potency (AC50) derived from single-agent qHTS dose-response curves, so that the matrix screen covered a wide range of biological effect observed in the cell viability assay. […] The numerals in each 10×10 matrix show the maximum survival achieved with the indicated combinations or single agents. The maximum survival achieved by each pair of compounds is represented by the highest numbers in each 10×10 matrix, the examples of which are shown in FIG. 9. The bottom matrices depict the synergy matrix calculated using highest-single agent (HSA) model. The HSA synergy assesses the pro-survival benefit of compound combination compared to single agent alone, which was computed as the difference between cell survival out of combination and that from the best single agent at each tested concentration. Synergy is defined as the difference between the combination and max response with single agent (synergy=combination max (single agent A, single agent B).

[3] = H9 cell survival normalized to 10 μM Y-27632 (taken to be 100%)
[4] = H9 cell survival, normalized to 10 μM Y-27632
[5] = H9 cell survival, CellTiter-Glo 24 hours after seeding; read-out: AC50 (concentration at 50% efficacy)
[6] = Homo sapiens, H9, 24 h, H9 cell survival, CellTiter-Glo 24 hours after seeding; read-out: AC50 (concentration at 50% efficacy)
[7] = Homo sapiens, H9, 24 h, read-out: Efficacy (activity range between predicted activities at zero and infinite doses, Hill equation)
[8] = Homo sapiens, H9, 24 h, read-out: Max (maximum activity value from all tested concentrations)
[9] = Homo sapiens, H9, 24 h; read-out: Efficacy (activity range between predicted activities at zero and infinite doses, Hill equation)
[10] = Homo sapiens, H9, 24 h; read-out: Max (maximum activity value from all tested concentrations)
[11] = Homo sapiens; H9 cell survival, CellTiter-Glo 24 hours after seeding; read-out: AC50 (concentration at 50% efficacy)
[12] = Homo sapiens, H9, 24 h, H9 cell survival normalized to 10 μM Y-27632 (taken to be 100%); read-out: Max (maximum activity value from all tested concentrations)
[13] = Homo sapiens, H9, 24 h, H9 cell survival, normalized to 10 μM Y-27632; read-out: Efficacy (activity range between predicted activities at zero and infinite doses, Hill equation)

Cc1ccc2c(c1)C(=O)C1(O)CCN(c3ccccc3)C1=N2 (single isomer, unassigned; (-)) [(−)-Blebbistatin]
Max (maximum activity value from all tested concentrations) [1, 3]: 90.71% and 107.8% | Efficacy (activity range between predicted activities at zero and infinite doses, Hill equation) [1, 4]: 105 and 96 | synergy with Chroman 1 on cell survival (HSA model) [2]: lacking synergy

COc1ccccc1-c1c[nH]c2ncc(-c3cncc(C(=O)N(C)C)c3)cc12 [PPY A]
Max (maximum activity value from all tested concentrations) [1, 3]: 37.42% | AC50 [1, 5]: 2.93 µM | Efficacy (activity range between predicted activities at zero and infinite doses, Hill equation) [1, 4]: 41.9

CCCCCCCCCCCCCC(=O)O[C@@H]1[C@@H](C)[C@@]2(O)[C@@H](C=C(CO)C[C@]3(O)C(=O)C(C)=C[C@@H]23)[C@@H]2C(C)(C)[C@]12OC(C)=O [Phorbol 12-myristate 13-acetate]
Max (maximum activity value from all tested concentrations) [1, 3]: 48.49% | AC50 [1, 5]: 0.21 µM | Efficacy (activity range between predicted activities at zero and infinite doses, Hill equation) [1, 4]: 36.8

CC(N/C(=N\C#N)Nc1ccncc1)C(C)(C)C (stereo not drawn) [Pinacidil]
AC50 [1, 6]: 21.1 µM | Emax [1, 7]: 86.4% | Emax [1, 8]: 83.1%

CC(C)(C)c1nc2c3cc[nH]c(=O)c3c3cc(F)ccc3c2[nH]1 [Pyridone 6]
Max (maximum activity value from all tested concentrations) [1, 3]: 28.9% | Efficacy (activity range between predicted activities at zero and infinite doses, Hill equation) [1, 4]: 0

O=S(=O)(NCC1CC1)c1ccc(Nc2nccc(N3CCCc4cc(O)ccc43)n2)cc1 [Pyrintegrin]
Max (maximum activity value from all tested concentrations) [1, 3]: 27.85% | AC50 [1, 5]: 3.29 µM | Efficacy (activity range between predicted activities at zero and infinite doses, Hill equation) [1, 4]: 31

CC(C)[C@H](NC(=O)c1ccc2ccccc2n1)C(=O)N[C@@H](CC(=O)O)C(=O)COc1c(F)cccc1F [Q-VD-OPh hydrate]
Max (maximum activity value from all tested concentrations) [1, 3]: 93.54% | AC50 [1, 5]: 1.17 µM | Efficacy (activity range between predicted activities at zero and infinite doses, Hill equation) [1, 4]: 85.9 | synergy with Chroman 1 on cell survival (HSA model) [2]: synergistic with Chroman 1

O=C(NCc1cccc(O)c1)Nc1nc(-c2ccncc2)cs1 [RKI-1447]
Max (maximum activity value from all tested concentrations) [1, 3]: 103.2% | AC50 [1, 5]: 0.083 µM | Efficacy (activity range between predicted activities at zero and infinite doses, Hill equation) [1, 4]: 106

Cc1cc(Nc2cc(NC(=O)c3c(Cl)cccc3Cl)ccn2)nc(N)n1 [RO495]
Max (maximum activity value from all tested concentrations) [1, 3]: 89.28% | AC50 [1, 5]: 4.69 µM | Efficacy (activity range between predicted activities at zero and infinite doses, Hill equation) [1, 4]: 73.1

O=C(Nc1ccc2[nH]ncc2c1)C1CCC1 [Rhodblock 6]
Max (maximum activity value from all tested concentrations) [1, 3]: 61.61% | AC50 [1, 5]: 23.3 µM | Efficacy (activity range between predicted activities at zero and infinite doses, Hill equation) [1, 4]: 67.9

N#CC[C@H](C1CCCC1)n1cc(-c2ncnc3[nH]ccc23)cn1 [Ruxolitinib, Freebase, Ruxolitinib]
Max (maximum activity value from all tested concentrations) [1, 3]: 87.05% | Efficacy (activity range between predicted activities at zero and infinite doses, Hill equation) [1, 4]: 48 | AC50 [1, 6]: 10.4 µM

N#CC[C@H](C1CCCC1)n1cc(-c2ncnc3[nH]ccc23)cn1 [Ruxolitinib]
AC50 [1, 5]: 8.26 µM and 11.8 µM

Cl.O=c1[nH]ccc2cc(OC3CCNCC3)ccc12 [SAR407899 (hydrochloride)]
Max (maximum activity value from all tested concentrations) [1, 3]: 116.3% | AC50 [1, 5]: 2.93 µM | Efficacy (activity range between predicted activities at zero and infinite doses, Hill equation) [1, 4]: 112

C[S+]([O-])c1ccc(-c2nc(-c3ccncc3)c(-c3ccc(F)cc3)[nH]2)cc1 (stereo not drawn) [SB-203580]
Emax [1, 9]: 37.4% | Emax [1, 10]: 35.6% | AC50 [1, 11]: 15.2 µM

CCn1c(-c2nonc2N)nc2cncc(CNC3CCNCC3)c21 [SB-747651-A]
Max (maximum activity value from all tested concentrations) [1, 3]: 78.33% and 111.1% | Efficacy (activity range between predicted activities at zero and infinite doses, Hill equation) [1, 4]: 35.5 and 68.7

CN(C)CCOc1cc(-c2cn[nH]c2)ccc1NC(=O)C1COc2ccccc2O1 (stereo not drawn) [SR-3677]
AC50 [1, 5]: 0.662 µM | Emax [1, 12]: 122% | AC50 [1, 6]: 0.585 µM | Emax [1, 13]: 118%

O=S(=O)(N=Cc1c(O)ccc2ccccc12)c1cccs1 [STF-083010]
Max (maximum activity value from all tested concentrations) [1, 3]: 66.46% | AC50 [1, 5]: 26.4 µM | Efficacy (activity range between predicted activities at zero and infinite doses, Hill equation) [1, 4]: 82.4

Cc1cc2c(cc1CC(=O)c1sccc1S(=O)(=O)[N-]c1onc(C)c1Cl)OCO2.[Na+] [Sitaxenian sodium]
Max (maximum activity value from all tested concentrations) [1, 3]: 21.69% | AC50 [1, 5]: 26.1 µM | Efficacy (activity range between predicted activities at zero and infinite doses, Hill equation) [1, 4]: 27.1

CN1CCN(c2nc(C3=C(c4c[nH]c5ccccc45)C(=O)NC3=O)c3ccccc3n2)CC1 [Sotrastaurin]
Emax [1, 12]: 35.9% | AC50 [1, 6]: 16.6 µM | Emax [1, 13]: 36.5%

Brc1c(Br)c(Br)c2n[nH]nc2c1Br [TBB]
Max (maximum activity value from all tested concentrations) [1, 3]: 28.55% | AC50 [1, 5]: 32.6 µM | Efficacy (activity range between predicted activities at zero and infinite doses, Hill equation) [1, 4]: 33.7

O=C(O)Cc1cc(I)c(Oc2cc(I)c(O)c(I)c2)c(I)c1 [TETRAC]
Emax [1, 12]: 34.2% | AC50 [1, 6]: 14.7 µM | Emax [1, 13]: 35.8%

Cc1cnc(Nc2ccc(OCCN3CCCC3)cc2)nc1Nc1cccc(S(=O)(=O)NC(C)(C)C)c1 [TG-101348]
Emax [1, 12]: 55.1% | AC50 [1, 6]: 33.2 µM | Emax [1, 13]: 67.3%

O=C(NCc1ccccc1)c1csc(Nc2ccncn2)n1 [Thiazovivin]
Max (maximum activity value from all tested concentrations) [1, 3]: 88.3% | AC50 [1, 5]: 0.414 µM | Efficacy (activity range between predicted activities at zero and infinite doses, Hill equation) [1, 4]: 80.6

C=C(NC(=O)C(=C)NC(=O)c1csc(C2=N[C@@H]3c4csc(n4)[C@H]4NC(=O)c5csc(n5)[C@H]([C@](C)(O)[C@@H](C)O)NC(=O)[C@H]5CSC(=N5)/C(=C/C)NC(=O)[C@H]([C@@H](C)O)NC(=O)c5csc(n5)[C@]3(CC2)NC(=O)[C@H](C)NC(=O)C(=C)NC(=O)[C@H](C)NC(=O)[C@H]([C@@H](C)CC)N[C@@H]2C=Cc3c([C@H](C)O)cc(nc3[C@H]2O)C(=O)O[C@@H]4C)n1)C(N)=O [Thiostrepton from Streptomyces azureus, Thiostrepton]
AC50 ([1]; Homo sapiens, H9, 24 h, read-out: AC50 (concentration at 50% efficacy)): 14.7 µM | Emax [1, 7]: 30.2% | Emax [1, 8]: 28.4%

Nc1nc2nc[nH]c2c(=S)[nH]1 [Tioguanine]
Emax [1, 12]: 21.3% | Emax [1, 13]: 0%

CCC[C@@]1(CCc2ccccc2)CC(O)=C([C@H](CC)c2cccc(NS(=O)(=O)c3ccc(C(F)(F)F)cn3)c2)C(=O)O1 [Tipranavir]
Emax [1, 9]: 26.5% | Emax [1, 10]: 21.8% | AC50 [1, 11]: 26.1 µM

CCC(=O)N1CCN(c2ccc(-n3c(=O)ccc4cnc5ccc(-c6cnc7ccccc7c6)cc5c43)cc2C(F)(F)F)CC1 [Torin-1]
Max (maximum activity value from all tested concentrations) [1, 3]: 27.66% | AC50 [1, 5]: 10.5 µM | Efficacy (activity range between predicted activities at zero and infinite doses, Hill equation) [1, 4]: 31.2

CN1CCN(Cc2ccc(-c3cnc4[nH]cc(-c5ccc6[nH]ccc6c5)c4c3)cc2)CC1 [URMC-099]
Emax [1, 12]: 27.1% | AC50 [1, 6]: 5.21 µM | Emax [1, 13]: 33.6%

C[C@H]1[C@H](C)CC[C@]2(C(=O)O)CC[C@]3(C)C(=CC[C@@H]4[C@@]5(C)CC[C@H](O)C(C)(C)[C@@H]5CC[C@]43C)[C@H]12 [URSOLIC ACID]
Emax [1, 12]: 22.3% | AC50 [1, 6]: 0.521 µM | Emax [1, 13]: 11.7%

N#Cc1cc(F)cc(-c2nc(-c3ccccn3)no2)c1 [VU 0285683]
Max (maximum activity value from all tested concentrations) [1, 3]: 21.28% | Efficacy (activity range between predicted activities at zero and infinite doses, Hill equation) [1, 4]: 0

O=C(Nc1ccc(-c2ccnc(Nc3ccc(N4CCOCC4)cc3)n2)cc1)[C@@H]1CCCN1 [XL-19]
Max (maximum activity value from all tested concentrations) [1, 3]: 29.98% | AC50 [1, 5]: 23.3 µM | Efficacy (activity range between predicted activities at zero and infinite doses, Hill equation) [1, 4]: 35.5

C[C@@H](N)c1ccc(C(=O)Nc2ccnc3[nH]ccc23)cc1 [Y-39983]
Emax [1, 12]: 127% | Emax [1, 13]: 121%

Cc1sc2c(c1C)C(c1ccc(Cl)cc1)=N[C@@H](CC(=O)NCCCCNC(=O)COc1cccc3c1C(=O)N(C1CCC(=O)NC1=O)C3=O)c1nnc(C)n1-2 (stereo partly drawn) [dBETI]
Max (maximum activity value from all tested concentrations) [1, 3]: 62.14% | AC50 [1, 5]: 0.004 µM | Efficacy (activity range between predicted activities at zero and infinite doses, Hill equation) [1, 4]: −67.9

C/C=C/C(=O)C(C)C1=CC(=O)C2=C(OC34CC[C@H](O)C(C)(C)[C@@H]3CC[C@H](C)C4(C)C2)C1=O (stereo partly drawn) [podosporin A]
Max (maximum activity value from all tested concentrations) [1, 3]: 26.17% | Efficacy (activity range between predicted activities at zero and infinite doses, Hill equation) [1, 4]: 0

c1ccc2c3c([nH]c2c1)CNCC3 [tryptoline]
Emax [1, 12]: 27.9% | AC50 [1, 6]: 0.0009 µM | Emax [1, 13]: -33.1%

(−)-Indolactam V
Max (maximum activity value from all tested concentrations) [1, 3]: 51.21% | AC50 [1, 5]: 0.833 µM | Efficacy (activity range between predicted activities at zero and infinite doses, Hill equation) [1, 4]: 45.5
